Laboratory results from patent US20230066011A1, “PYRROLOPYRIMIDINE DERIVATIVE, AND PHARMACEUTICAL COMPOSITION FOR PREVENTING OR TREATING PROTEIN KINASE-RELATED DISEASE COMPRISING SAME AS ACTIVE INGREDIENT” (VORONOI CO., LTD., priority 2019, published 2023).

Legend:
Assay type in all cases: binding
[1] = molecular target: T1, TTK (Homo sapiens, UniProt P33981); assay: ScanMAX Kinase analysis panel, TTK; set-up: purchased DiscoverX Corp. (commissioned ScanMAX panel service); details: 1 μM in DMSO; <35% considered inhibitory; read-out: percent control (% control), TTK
T1 sequence (P33981 1-857): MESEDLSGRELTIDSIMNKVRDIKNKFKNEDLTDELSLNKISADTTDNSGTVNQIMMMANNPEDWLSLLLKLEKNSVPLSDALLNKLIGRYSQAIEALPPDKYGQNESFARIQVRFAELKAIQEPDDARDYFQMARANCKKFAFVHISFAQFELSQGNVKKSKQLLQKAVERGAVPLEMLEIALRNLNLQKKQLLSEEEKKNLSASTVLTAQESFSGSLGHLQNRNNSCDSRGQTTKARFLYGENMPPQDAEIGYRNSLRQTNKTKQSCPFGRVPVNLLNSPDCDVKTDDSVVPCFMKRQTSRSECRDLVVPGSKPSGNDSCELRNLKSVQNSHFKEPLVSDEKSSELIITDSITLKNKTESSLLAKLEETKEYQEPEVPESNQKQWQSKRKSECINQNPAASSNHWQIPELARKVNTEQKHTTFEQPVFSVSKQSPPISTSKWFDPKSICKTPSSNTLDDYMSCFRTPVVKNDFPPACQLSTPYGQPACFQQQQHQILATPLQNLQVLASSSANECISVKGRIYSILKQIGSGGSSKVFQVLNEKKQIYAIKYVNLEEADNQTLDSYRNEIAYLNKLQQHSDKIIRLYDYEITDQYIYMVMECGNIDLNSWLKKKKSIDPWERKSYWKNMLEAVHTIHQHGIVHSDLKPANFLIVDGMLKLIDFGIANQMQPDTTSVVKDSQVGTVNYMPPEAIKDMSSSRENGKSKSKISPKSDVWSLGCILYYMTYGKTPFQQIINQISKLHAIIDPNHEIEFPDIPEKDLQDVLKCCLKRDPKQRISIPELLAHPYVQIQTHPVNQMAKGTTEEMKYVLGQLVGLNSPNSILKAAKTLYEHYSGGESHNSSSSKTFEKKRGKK
Protocol: (§1) Specifically, the enzyme (kinase) selectivity of Example compounds 238, 361, 411, 157, 161, 228, and 158 selected from the Example compounds of the present invention was determined by commissioning DiscoverX Corp., and an experiment was performed using a ScanMAX™ Kinase analysis panel. In this case, a concentration of the drug with which the enzymes were treated was 1 μM in DMSO, and the percent control (% control) was defined in the same manner as in the following Expression 1.
(§2) (Example Compound−Positive Control)/(Negative Control−Positive Control)×100 [Expression 1]
(§3) wherein the positive control represents a compound having a percent control of 0%, and the negative control represents DMSO having a percent control of 100%. For the enzyme selectivity of the present invention, it was considered that the compound has an inhibitory activity on each of the enzymes when the percent control for the corresponding enzyme was <35% (i. e., less than 35%).

[2] = molecular target: T2, PHKG1 (Homo sapiens, UniProt Q16816); assay: ScanMAX Kinase analysis panel, PHKG1; details: 1 μM in DMSO; <35% considered inhibitory; read-out: percent control (% control), PHKG1
T2 construct: purchased DiscoverX Corp. (ScanMAX Kinase analysis panel, service)
T2 sequence (Q16816 whole entry): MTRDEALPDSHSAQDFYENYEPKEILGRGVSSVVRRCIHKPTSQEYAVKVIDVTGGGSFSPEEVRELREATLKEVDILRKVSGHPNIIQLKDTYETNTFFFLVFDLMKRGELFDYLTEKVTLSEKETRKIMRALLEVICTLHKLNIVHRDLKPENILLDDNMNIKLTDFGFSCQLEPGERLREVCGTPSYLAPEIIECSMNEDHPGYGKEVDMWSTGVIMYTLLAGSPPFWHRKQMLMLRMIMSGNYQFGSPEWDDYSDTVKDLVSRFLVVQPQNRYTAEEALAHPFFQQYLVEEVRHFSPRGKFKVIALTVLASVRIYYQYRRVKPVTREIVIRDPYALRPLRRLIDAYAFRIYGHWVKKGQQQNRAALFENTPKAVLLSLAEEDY
Protocol: as §1, §2, §3

[3] = molecular target: T3, CLK2 (Homo sapiens, UniProt P49760); assay: ScanMAX Kinase analysis panel, CLK2; details: 1 μM in DMSO; <35% considered inhibitory; read-out: percent control (% control), CLK2
T3 construct: purchased DiscoverX Corp. (ScanMAX Kinase analysis panel, service)
T3 sequence (P49760 whole entry): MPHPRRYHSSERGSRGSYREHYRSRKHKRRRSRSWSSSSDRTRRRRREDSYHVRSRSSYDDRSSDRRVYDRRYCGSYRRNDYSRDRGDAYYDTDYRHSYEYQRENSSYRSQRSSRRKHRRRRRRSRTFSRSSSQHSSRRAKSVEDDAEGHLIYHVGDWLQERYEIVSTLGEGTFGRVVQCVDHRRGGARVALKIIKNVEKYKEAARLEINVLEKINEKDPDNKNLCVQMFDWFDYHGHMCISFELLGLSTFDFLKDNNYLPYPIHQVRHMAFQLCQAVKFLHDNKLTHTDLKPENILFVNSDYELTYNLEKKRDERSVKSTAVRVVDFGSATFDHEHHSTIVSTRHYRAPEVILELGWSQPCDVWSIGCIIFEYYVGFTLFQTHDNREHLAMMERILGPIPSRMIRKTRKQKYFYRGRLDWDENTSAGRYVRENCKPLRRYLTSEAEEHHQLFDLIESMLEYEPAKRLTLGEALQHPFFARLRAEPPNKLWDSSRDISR
Protocol: as §1, §2, §3

[4] = molecular target: T4, PHKG2 (Homo sapiens, UniProt P15735); assay: ScanMAX Kinase analysis panel, PHKG2; details: 1 μM in DMSO; <35% considered inhibitory; read-out: percent control (% control), PHKG2
T4 construct: purchased DiscoverX Corp. (ScanMAX Kinase analysis panel, service)
T4 sequence (P15735 1-406): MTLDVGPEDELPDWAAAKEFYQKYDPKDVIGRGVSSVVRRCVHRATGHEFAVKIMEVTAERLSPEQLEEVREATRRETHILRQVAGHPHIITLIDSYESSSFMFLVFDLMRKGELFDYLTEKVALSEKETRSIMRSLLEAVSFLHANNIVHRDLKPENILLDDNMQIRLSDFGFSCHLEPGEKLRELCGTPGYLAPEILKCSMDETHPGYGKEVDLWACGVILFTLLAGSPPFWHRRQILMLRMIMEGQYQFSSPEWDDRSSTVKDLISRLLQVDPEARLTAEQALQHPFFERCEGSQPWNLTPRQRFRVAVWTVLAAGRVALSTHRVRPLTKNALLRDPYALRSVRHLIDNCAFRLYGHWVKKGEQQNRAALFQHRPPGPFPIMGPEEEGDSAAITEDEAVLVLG
Protocol: as §1, §2, §3

[5] = molecular target: T5, CSNK1E (Homo sapiens, UniProt P49674); assay: ScanMAX Kinase analysis panel, CSNK1E; details: 1 μM in DMSO; <35% considered inhibitory; read-out: percent control (% control), CSNK1E
T5 construct: purchased DiscoverX Corp. (ScanMAX Kinase analysis panel, service)
T5 sequence (P49674 whole entry): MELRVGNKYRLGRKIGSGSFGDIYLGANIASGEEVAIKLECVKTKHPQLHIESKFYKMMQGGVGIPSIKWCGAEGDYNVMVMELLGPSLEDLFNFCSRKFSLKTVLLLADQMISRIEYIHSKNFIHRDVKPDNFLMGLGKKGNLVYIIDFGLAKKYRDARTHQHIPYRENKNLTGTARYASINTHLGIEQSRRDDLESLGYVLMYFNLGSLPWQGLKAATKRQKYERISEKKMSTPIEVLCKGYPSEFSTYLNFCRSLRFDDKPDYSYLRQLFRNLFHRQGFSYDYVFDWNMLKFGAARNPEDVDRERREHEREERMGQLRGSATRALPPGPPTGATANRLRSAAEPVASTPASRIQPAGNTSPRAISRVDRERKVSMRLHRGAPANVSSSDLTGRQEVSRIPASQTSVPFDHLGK
Protocol: as §1, §2, §3

[6] = molecular target: T6, DYRK2 (Homo sapiens, UniProt Q92630); assay: ScanMAX Kinase analysis panel, DYRK2; details: 1 μM in DMSO; <35% considered inhibitory; read-out: percent control (% control), DYRK2
T6 construct: purchased DiscoverX Corp. (ScanMAX Kinase analysis panel, service)
T6 sequence (Q92630 1-601): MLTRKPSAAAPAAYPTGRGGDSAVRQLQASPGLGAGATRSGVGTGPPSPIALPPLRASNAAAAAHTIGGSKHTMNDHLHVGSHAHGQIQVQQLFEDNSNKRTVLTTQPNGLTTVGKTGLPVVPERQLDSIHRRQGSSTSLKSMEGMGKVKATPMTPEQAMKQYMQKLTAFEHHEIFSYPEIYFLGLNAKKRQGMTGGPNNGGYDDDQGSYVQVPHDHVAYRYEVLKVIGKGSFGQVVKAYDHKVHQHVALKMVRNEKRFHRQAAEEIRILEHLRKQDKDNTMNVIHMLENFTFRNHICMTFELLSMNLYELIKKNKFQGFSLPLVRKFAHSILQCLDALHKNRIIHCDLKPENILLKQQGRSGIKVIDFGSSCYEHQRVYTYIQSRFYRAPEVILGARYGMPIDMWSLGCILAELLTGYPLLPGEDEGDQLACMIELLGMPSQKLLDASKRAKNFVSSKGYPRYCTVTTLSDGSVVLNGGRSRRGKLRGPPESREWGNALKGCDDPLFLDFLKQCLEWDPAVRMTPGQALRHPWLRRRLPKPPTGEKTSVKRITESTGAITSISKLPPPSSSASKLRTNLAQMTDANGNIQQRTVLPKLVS
Protocol: as §1, §2, §3

[7] = molecular target: T7, PYK2 (Homo sapiens, UniProt Q14289); assay: ScanMAX Kinase analysis panel, PYK2; details: 1 μM in DMSO; <35% considered inhibitory; read-out: percent control (% control), PYK2
T7 construct: purchased DiscoverX Corp. (commissioned ScanMAX panel service)
T7 sequence (Q14289 whole entry): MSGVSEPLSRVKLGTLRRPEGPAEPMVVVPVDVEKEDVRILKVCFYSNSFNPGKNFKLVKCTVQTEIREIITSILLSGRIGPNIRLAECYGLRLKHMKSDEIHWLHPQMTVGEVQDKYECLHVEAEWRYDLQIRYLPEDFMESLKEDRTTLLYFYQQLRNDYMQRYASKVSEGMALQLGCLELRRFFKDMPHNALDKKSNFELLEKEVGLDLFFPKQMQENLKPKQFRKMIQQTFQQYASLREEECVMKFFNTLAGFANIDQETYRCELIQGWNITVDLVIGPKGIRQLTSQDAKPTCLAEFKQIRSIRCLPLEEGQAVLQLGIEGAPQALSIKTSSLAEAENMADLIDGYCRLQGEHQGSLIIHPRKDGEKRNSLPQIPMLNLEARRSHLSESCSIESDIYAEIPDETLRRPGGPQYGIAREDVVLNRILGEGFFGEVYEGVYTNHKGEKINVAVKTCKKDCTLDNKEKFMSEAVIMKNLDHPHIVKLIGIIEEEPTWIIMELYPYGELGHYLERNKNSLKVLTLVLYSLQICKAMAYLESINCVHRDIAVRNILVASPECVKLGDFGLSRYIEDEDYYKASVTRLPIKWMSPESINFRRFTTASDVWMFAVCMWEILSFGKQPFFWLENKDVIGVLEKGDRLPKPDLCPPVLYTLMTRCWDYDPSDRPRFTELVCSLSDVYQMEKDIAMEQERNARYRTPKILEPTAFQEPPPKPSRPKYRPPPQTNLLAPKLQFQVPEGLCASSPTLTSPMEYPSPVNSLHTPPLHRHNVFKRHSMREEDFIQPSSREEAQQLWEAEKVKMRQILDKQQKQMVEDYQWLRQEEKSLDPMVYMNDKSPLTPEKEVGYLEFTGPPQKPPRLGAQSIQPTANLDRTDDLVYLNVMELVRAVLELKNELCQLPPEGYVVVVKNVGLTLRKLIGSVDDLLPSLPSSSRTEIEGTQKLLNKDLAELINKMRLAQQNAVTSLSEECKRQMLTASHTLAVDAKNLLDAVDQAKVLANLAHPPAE
Protocol: as §1, §2, §3

[8] = molecular target: T8, CLK4 (Homo sapiens, UniProt Q9HAZ1); assay: ScanMAX Kinase analysis panel, CLK4; details: 1 μM in DMSO; <35% considered inhibitory; read-out: percent control (% control), CLK4
T8 construct: purchased DiscoverX Corp. (ScanMAX Kinase analysis panel, service)
T8 sequence (Q9HAZ1 whole entry): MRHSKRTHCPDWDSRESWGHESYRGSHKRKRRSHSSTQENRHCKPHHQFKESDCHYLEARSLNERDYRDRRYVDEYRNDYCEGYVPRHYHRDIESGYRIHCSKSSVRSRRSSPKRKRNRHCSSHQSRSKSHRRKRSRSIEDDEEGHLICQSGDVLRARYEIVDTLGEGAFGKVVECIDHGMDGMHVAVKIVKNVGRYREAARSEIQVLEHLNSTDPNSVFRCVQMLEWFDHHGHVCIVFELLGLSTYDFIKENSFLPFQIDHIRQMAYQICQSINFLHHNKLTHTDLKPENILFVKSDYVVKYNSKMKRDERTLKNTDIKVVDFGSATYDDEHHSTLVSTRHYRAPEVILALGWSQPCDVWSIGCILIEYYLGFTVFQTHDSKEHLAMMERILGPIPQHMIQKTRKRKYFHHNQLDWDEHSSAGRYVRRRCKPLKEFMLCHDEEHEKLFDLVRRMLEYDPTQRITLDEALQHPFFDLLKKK
Protocol: as §1, §2, §3

SMILES | remaining binding at 1 µM [1] | remaining binding at 1 µM [2] | remaining binding at 1 µM [3] | remaining binding at 1 µM [4] | remaining binding at 1 µM [5] | remaining binding at 1 µM [6] | remaining binding at 1 µM [7] | remaining binding at 1 µM [8]
CNc1nc(Nc2ccc(P3(=O)CCN(C4CC4)CC3)cc2OC)nc2[nH]cc(C(F)(F)F)c12 [Example 411, 1-cyclopropyl-4-(3-methoxy-4-((4-(methylamino)-5-(trifluoromethyl)-7H-pyrrolo[2,3-d]pyrimidin-2-yl)amino)phenyl)-1,4-azaphosphinane-4-oxide] | 2.5% | 17% | 0% | 2.5% | 31% | 28% | 13% | 1.4%
CCCNc1nc(Nc2ccc(S(=O)(=O)N3CCC(N4CCOCC4)CC3)cc2OC)nc2[nH]cc(C(F)(F)F)c12 [Example 161, N^2-(2-methoxy-4-((4-morpholinopiperidin-1-yl)sulfonyl)phenyl)-N^4-propyl-5-(trifluoromethyl)-7H-pyrrolo[2,3-d]pyrimidine-2,4-diamine] | 4.2% | 24% | 3.9% | 21% | 12% | 33% | 1.3% | 0.65%
C=CCNc1nc(Nc2ccc(S(=O)(=O)N3CCC(N4CCOCC4)CC3)cc2OC)nc2[nH]cc(C#N)c12 [Example 361, 4-(allylamino)-2-((2-methoxy-4-((4-morpholino-piperidin-1-yl)sulfonyl)phenyl)amino)-7H-pyrrolo[2,3-d]pyrimidine-5-carbonitrile] | 2.4% | 9.7% | 3.9% | 3% | 0.05% | 10% | 2.2% | 2.8%

Second part, the compound after the results:

remaining binding at 1 µM [1] | remaining binding at 1 µM [2] | remaining binding at 1 µM [3] | remaining binding at 1 µM [4] | remaining binding at 1 µM [5] | remaining binding at 1 µM [6] | remaining binding at 1 µM [7] | remaining binding at 1 µM [8] | SMILES
2.9% | 30% | 5.5% | 5.5% | 40% | 16% | 22% | 0.05% | O=C(c1ccc(Nc2nc(C3CC3)c3c(C(F)(F)F)c[nH]c3n2)c2c1OCCO2)N1CCC(N2CCOCC2)CC1 [Example 228, (8-((4-cyclopropyl-5-(trifluoromethyl)-7H-pyrrolo[2,3-d]pyrimidin-2-yl)amino)-2,3-dihydrobenzo[b][1,4]dioxin-5-yl)(4-morpholinopiperidin-1-yl)methanone]
4% | 7.8% | 2.9% | 5.8% | 2.4% | 7% | 5.5% | 0.55% | CNc1nc(Nc2ccc(S(=O)(=O)N3CCC(N4CCOCC4)CC3)cc2OC)nc2[nH]cc(C(F)(F)F)c12 [Example 157, N^2-(2-methoxy-4-((4-morpholinopiperidin-1-yl)sulfonyl)phenyl)-N^4-methyl-5-(trifluoromethyl)-7H-pyrrolo[2,3-d]pyrimidine-2,4-diamine 2,2,2-trifluoroacetate]
2.6% | 25% | 22% | 51% | 3.3% | 25% | 3% | 0.3% | CCNc1nc(Nc2ccc(S(=O)(=O)N3CCC(N4CCOCC4)CC3)cc2OC)nc2[nH]cc(C(F)(F)F)c12 [Example 158, N^4-ethyl-N^2-(2-methoxy-4-((4-morpholinopiperidin-1-yl)sulfonyl)phenyl)-5-(trifluoromethyl)-7H-pyrrolo[2,3-d]pyrimidine-2,4-diamine 2,2,2-trifluoroacetate]
2.9% | 3.6% | 0.65% | 2.2% | 32% | 19% | 5.2% | 3.6% | CNc1nc(Nc2ccc(C(=O)N3CCC(N4CCOCC4)CC3)c3c2OCCO3)nc2[nH]cc(C(F)(F)F)c12 [Example 238, (8-((4-(methylamino)-5-(trifluoromethyl)-7H-pyrrolo[2,3-d]pyrimidin-2-yl)amino)-2,3-dihydrobenzo[b][1,4]dioxin-5-yl)(4-morpholinopiperidin-1-yl)methanone]
